Data published in ChEMBL document CHEMBL4699580, “Drophiobiolins A and B, Bioactive Ophiobolan Sestertepenoids Produced by Dreschslera gigantea” (J Nat Prod, 2020).
Activity calls are given as the source filed them. The calls are words filed in the database; no cut-off is given here.

Legend:
[1] = system: Chenopodium album; experiment: Phytotoxicity against Chenopodium album leaf assessed as diameter of necrosis at 10^-4 M by leaf-puncture assay; type: functional; details: dose 0.0001 M; 100 µM
[2] = system: Solanum lycopersicum; experiment: Phytotoxicity against Lycopersicon esculentum leaf assessed as diameter of necrosis at 10^-3 M by leaf-puncture assay; type: functional; details: dose 0.001 M; 1000 µM
[3] = system: Digitaria sanguinalis; experiment: Phytotoxicity against Digitaria sanguinalis leaf assessed as diameter of necrosis at 10^-4 M by leaf-puncture assay; type: functional; details: dose 0.0001 M; 100 µM
[4] = system: Digitaria sanguinalis; experiment: Phytotoxicity against Digitaria sanguinalis leaves assessed as diameter of necrosis at 10^-3 M by leaf-puncture assay; type: functional; details: dose 0.001 M; 1000 µM
[5] = system: Solanum lycopersicum; experiment: Phytotoxicity against Lycopersicon esculentum leaf assessed as diameter of necrosis at 10^-4 M by leaf-puncture assay; type: functional; details: dose 0.0001 M; 100 µM
[6] = system: RD; experiment: Cytotoxicity against human RD cells assessed as reduction in cell viability relative to control; type: functional
[7] = system: B16-F10; experiment: Antiproliferative activity against mouse B16-F10 cells assessed as reduction in cell viability after 72 hrs by MTT assay; type: functional, cell-based; details: B16-F10, 72 h
[8] = system: Chenopodium album; experiment: Phytotoxicity against Chenopodium album leaf assessed as diameter of necrosis at 10^-3 M by leaf-puncture assay; type: functional; details: dose 0.001 M; 1000 µM
[9] = system: HeLa; experiment: Cytotoxicity against human HeLa cells assessed as reduction in cell viability at 0.5 to 10 uM after 24 hrs by MTT assay relative to control; type: functional; details: dose microM 0.5-10
[10] = system: NCI-H1299; experiment: Cytotoxicity against human NCI-H1299 cells assessed as reduction in cell viability at 0.5 to 10 uM after 24 hrs by MTT assay; type: functional, cell-based; details: dose microM 0.5-10, time 24.0 hrs
[11] = system: HaCaT; experiment: Cytotoxicity against human HaCaT cells assessed as reduction in cell viability at 0.5 to 10 uM after 24 hrs by MTT assay relative to control; type: functional; details: dose microM 0.5-10
[12] = system: HeLa; experiment: Cytotoxicity against human HeLa cells assessed as reduction in cell viability after 24 hrs by MTT assay; type: functional, cell-based
[13] = system: A-431; experiment: Cytotoxicity against human A-431 cells assessed as reduction in cell viability at 0.5 to 10 uM after 24 hrs by MTT assay relative to control; type: functional; details: dose microM 0.5-10

Structure (SMILES) | Activity [1] [mm] | Activity [2] [mm] | Activity [3] [mm] | Activity [4] [mm] | Activity [5] [mm] | Activity [6] [%] | IC50 [7] [µM] | Activity [8] [mm] | Activity [9] | Activity [10] | Activity [11] | IC50 [12] [µM] | Activity [13]
CC(C)=C[C@H]1C[C@H](C)[C@]2(CC[C@]3(C)C[C@H]4[C@H](C(=O)C[C@@]4(C)O)/C(C=O)=C\C[C@H]32)O1 [OPHIOBOLIN A] | 2 | 3 | 3 | 3 | 3 | 70 | 0.29 | 3 |  |  |  |  | 
CC1=CC(=O)[C@H]2/C(C=O)=C\C[C@@H]3[C@](C)(CC[C@]3(O)[C@@H](C)CCCC(C)(C)O)C[C@H]12 | 0 | 2 | 2 | 3 | 1 |  |  | 3 | <=50% | inactive | <=63% | 10 | <=72%
CC(C)=C[C@H]1C[C@H](C)[C@]2(CC[C@]3(C)C[C@@H]4C(C)=CC(=O)/C4=C(\CO)C(=O)C[C@H]32)O1 | 1 | 2 | 2 | 3 | 2 |  |  | 3 | <=50% | inactive | <=63% | 10 | <=72%
